Patent publication US12544356B2, “Combination of a chromene compound and a second active agent” (EUCLISES PHARMACEUTICALS, INC., priority 2016, dated 2026)

Assays:
[1] = Body weight in HT-29 xenograft study (Example 1); assay type: in vivo, CB17SCID male mice; details: erlotinib 50 mg/kg oral daily
Procedure: (§1) 48 CB17SCID male mice were implanted with 2.5×10^6 HT29 cells. Growth of the tumor was calculated for each animal using a caliper and the equation: V=π×ab^2/6.
(§2) Mouse weight and tumor volume measurements were taken on days 0, 3, 6, 9, 12, 15, 18, 21, and 22 following randomization.

[2] = system: PGE2; assay: Intratumoral concentration of PGE2 in HT-29 tumors (Example 1); assay type: in vivo, CB17SCID male mice; details: HT-29 tumor, day 24; erlotinib 50 mg/kg
Procedure: as §1, §2

[3] = Plasma concentration of Compound A01 and erlotinib (Example 1); assay type: in vivo, CB17SCID male mice; details: male, CB17SCID, mouse, plasma, oral, 50 mg/kg
Procedure: as §1, §2

[4] = Intratumoral concentration of Compound A01 and erlotinib (Example 1); assay type: in vivo, CB17SCID male mice; details: male, CB17SCID, mouse, tumor (HT-29 xenograft), oral, 50 mg/kg
Procedure: as §1, §2

[5] = system: HT-29 xenograft murine colon carcinoma model; assay: HT-29 xenograft tumor growth, Compound A01 with erlotinib (Example 1); assay type: in vivo, CB17SCID male mice; details: for Tumor Volume: erlotinib 50 mg/kg oral daily
Procedure: HT-29 cells were cultured in medium for one week. Following digestion cells were centrifuged for 3-5 minutes at 800-1500 rpm. Cells were washed with PBS and centrifuged again under the same condition. Cells were then suspended in PBS to a final concentration of […]. 200 μL of the HT-29 cell suspension were subcutaneously injected into the mice left forelimb axillary (2.5×10^6 HT-29 cells per mouse).
as §1, §2

[6] = system: CT26.WT murine colon carcinomas; assay: CT26 tumor volume, Compound A01 vs celecoxib (Example 6); assay type: in vivo, Female Harlan Balb/c mice (BALB/cAnNHsd)
Procedure: (§3) CT26 murine colon carcinoma cells were prepared as in Example 2. Female Harlan Balb/c mice (BALB/cAnNHsd) were inoculated with 5×10^5 CT26 cells suspended in PBS (200 μL) subcutaneously high in the axilla (just under the fore limb). All mice were sorted into study groups based on caliper measurement estimation of tumor burden on Day 8 when the mean tumor burden for all animals was approximately 79 mm^3 (range of group means, 75-83 mm^3).

[7] = system: HT-29 xenograft colon carcinoma model; assay: HT-29 xenograft tumor volume, Compound A01 vs celecoxib (Example 5); assay type: in vivo, CB17SCID mice; details: 10 mg/kg oral daily
Procedure: (§4) HT-29 cells were prepared and implanted by standard methods using the same procedure as Example 1.
(§5) 42 CB17SCID mice were implanted with 2.5×10^6 HT-29 cells.
(§6) Mouse weight and tumor volume measurements were taken on days 0, 3, 6, 9, 12, 15, 18, 21, and 22 following randomization. After 22 days dosing, the blood from each animal was collected at 2 hours and 6 hours post dose.

[8] = system: PGE-2; assay: Tumoral PGE-2 in HT-29 tumors (Example 5); assay type: in vivo, CB17SCID mice; details: HT-29 tumor, day 24; 10 mg/kg
Procedure: as §4, §5, §6

[9] = system: prostaglandin E2 (PGE2); assay: CT26 tumoral PGE-2 (Example 6); assay type: in vivo, Female Harlan Balb/c mice (BALB/cAnNHsd); details: 10 mg/kg (Group 8)
Procedure: as §3

SMILES: C#Cc1cccc(Nc2ncnc3cc(OCCOC)c(OCCOC)cc23)c1 [Erlotinib, erlotinib, reference compound]
- Body weight ([1]; Day 0): 22.4 g
- Body weight ([1]; Day 3): 22.4 g
- Body weight ([1]; Day 15): 20.5 g
- Body weight ([1]; Day 21): 21.0 g
- Intratumoral concentration of PGE2 (mean ± SD) [2]: 160.6 ± 89.5 µg/g
- concentration at 2 h [3]: 3340 ± 1590 ng/mL
- concentration at 6 h [3]: 1260 ± 520 ng/mL
- concentration at 24 day [4]: < 80000 ng/g
- Tumor Volume ([5]; Day 0): 73.7 mm^3
- Tumor Volume ([5]; Day 3): 156.9 mm^3
- Tumor Volume ([5]; Day 6): 192.0 mm^3
- Tumor Volume ([5]; Day 9): 241.0 mm^3
- Tumor Volume ([5]; Day 12): 299.1 mm^3
- Tumor Volume ([5]; Day 15): 394.5 mm^3
- Tumor Volume ([5]; Day 18): 641.1 mm^3
- Tumor Volume ([5]; Day 21): 691.4 mm^3
- Tumor Volume ([5]; Day 22): 774.8 mm^3
- suppression of tumor growth compared to vehicle ([5]; erlotinib alone (50 mg/kg)): 38%

SMILES: Cc1ccc(-c2cc(C(F)(F)F)nn2-c2ccc(S(N)(=O)=O)cc2)cc1 [Celecoxib, celecoxib, reference compound]
- CT26 Tumor Volume ([6]; Day 8, 10 mg/kg): 79 ± 4 mm^3
- CT26 Tumor Volume ([6]; Day 8, 30 mg/kg): 76 ± 5 mm^3
- CT26 Tumor Volume ([6]; Day 10, 10 mg/kg): 134 ± 11 mm^3
- CT26 Tumor Volume ([6]; Day 10, 30 mg/kg): 131 ± 17 mm^3
- CT26 Tumor Volume ([6]; Day 13, 10 mg/kg): 369 ± 42 mm^3
- CT26 Tumor Volume ([6]; Day 13, 30 mg/kg): 415 ± 66 mm^3
- CT26 Tumor Volume ([6]; Day 15, 10 mg/kg): 594 ± 84 mm^3
- CT26 Tumor Volume ([6]; Day 15, 30 mg/kg): 685 ± 93 mm^3
- CT26 Tumor Volume ([6]; Day 17, 10 mg/kg): 904 ± 92 mm^3
- CT26 Tumor Volume ([6]; Day 17, 30 mg/kg): 1046 ± 144 mm^3
- Tumor Volume ([7]; Day 0): 67.9 mm^3
- Tumor Volume ([7]; Day 3): 81.8 mm^3
- Tumor Volume ([7]; Day 6): 143.4 mm^3
- Tumor Volume ([7]; Day 9): 244.5 mm^3
- Tumor Volume ([7]; Day 12): 285.5 mm^3
- Tumor Volume ([7]; Day 15): 380.9 mm^3
- Tumor Volume ([7]; Day 18): 541.2 mm^3
- Tumor Volume ([7]; Day 21): 736.1 mm^3
- Tumor Volume ([7]; Day 22): 803.4 mm^3
- Mean PGE-2 (tumoral) [8]: 233.3 ± 267.2 ng/g
- Mean PGE-2 Concentration (CT26 tumoral) [9]: 1140 ng/g
